Values after ≈ are worked out from the molar mass of the structure shown.
How the values were obtained:
[1] = system: Staphylococcus aureus (Smith) ATCC 19636; experiment: MIC determination, S. aureus; format: cell-based; conditions: S. aureus ATCC 19636, 17 h; for MIC: Staphylococcus aureus, ATCC19636
Method: (§1) Susceptibility testing for bacterial cultures is performed according to the National Council for Clinical Laboratory Standards (NCCLS) protocol M100-S12, “Performance Standards for Antimicrobial Susceptibility Testing.” The bacterial strains recommended by NCCLS were obtained from the American Type Culutre Collection (ATCC) (Table) and were maintained on Mueller Hinton (MHA) agar plates plus or minus 3% lysed horse blood (see Table). The bacteria were grown in Cation adjusted Mueller Hinton Broth (CaMHB) for liquid growth and susceptibility testing. S. cerevisiae (yeast) is grown in yeast peptone dextrose (YPD) media.
(§2) All bacterial cultures were grown at 37 degrees Celsius. Fresh colonies of S. aureus and MRSA were inoculated into liquid media and grown overnight and diluted the next day to grow to mid-log (Table 2). E. faecalis and S. pneumonia mid-log cultures were started directly from colony on plates. To attain mid-log growth, cultures were grown to an optical density (OD) at A590 of 0.2-0.8 (see Table 2) and then diluted to proper OD to obtain 5×10^5 cells/mL.
(§3) Diluted bacterial cultures are added to compound plates with compound diluted 2-fold from 100 μg/mL to 0.2 μg/mL final concentration in DMSO. Control antibiotics are also added: vancomycin, linezolid, and penicillin. In 384 well plates, 0.5 μL compound is added followed by addition of 50 μL of culture. DMSO alone is included as a control. Plates incubated at 37 degrees Celsius for 17-24 h.
(§4) Plates with cells mixed with compounds are incubated for 17 h for S. aureus and yeast, 24 h for MRSA, and all Enterococcus and Streptococcus strains. Yeast plates are incubated […].
(§5) Viability is determined by reading plates at A590 to determine optical density of treated and untreated cells and determining growth inhibition relative to controls.

[2] = system: Methicillin resistant S. aureus ATCC 33591; experiment: MIC determination, MRSA; format: cell-based, Staphylococcus aureus; conditions: MRSA ATCC 33591, 24 h; for MIC: Staphylococcus aureus
Method: as §1, §2, §3, §4, §5

[3] = system: Penicillin-res. S. pneumonia ATCC 700671; experiment: MIC determination, PRSP; format: cell-based, Streptococcus pneumonia; conditions: ATCC 700671, 24 h; for MIC: Streptococcus pneumoniae
Method: as §1, §2, §3, §4, §5

[4] = system: Streptococcus pneumonia ATCC 49619; experiment: MIC determination, S. pneumonia; format: cell-based; conditions: ATCC 49619, 24 h
Method: as §1, §2, §3, §4, §5

SMILES	MIC S. aureus [1]	MIC MRSA [2]	MIC PRSP [3]	MIC [1] [µg/mL]	MIC [2] [µg/mL]	MIC [3] [µg/mL]	MIC S. pneuomiae [4]
CC(O)C1ON(Cc2ccc(C#Cc3ccc(C(=O)O)cc3)cc2)C(C(=O)NCCc2c[nH]c3ccccc23)C1CO (centres unmarked)	* (the MIC is >90 μg/mL)	* (the MIC is >90 μg/mL)	* (the MIC is >90 μg/mL)				
Cc1ccc(C#Cc2ccc(CN3OC(C(C)O)C(CO)C3C(=O)NCCc3c[nH]c4cc(F)ccc34)cc2)cc1 (centres unmarked)	*** (the MIC is less than 5 μg/mL)	*** (the MIC is less than 5 μg/mL)	** (the MIC is 5-90 μg/mL)				
CC(O)C1ON(Cc2ccc(-c3ccccc3)cc2)C(C(=O)NCCc2c[nH]c3ccccc23)C1CO (centres unmarked)	** (the MIC is 5-90 μg/mL)	** (the MIC is 5-90 μg/mL)	* (the MIC is >90 μg/mL)				
CC(O)C1ON(Cc2ccc(-c3ccc(C(C)(C)C)cc3)cc2)C(C(=O)NCCc2c[nH]c3ccccc23)C1CO (centres unmarked)	** (the MIC is 5-90 μg/mL)	* (the MIC is >90 μg/mL)	** (the MIC is 5-90 μg/mL)				
Cc1ccc(C#Cc2ccc(CN3OC(CN)CC3C(=O)NCCc3c[nH]c4ccccc34)cc2)cc1 (centres unmarked)	** (the MIC is 5-90 μg/mL)	** (the MIC is 5-90 μg/mL)	** (the MIC is 5-90 μg/mL)				
Cc1ccc(C#Cc2ccc(CN3OC(C(C)O)C(CO)C3CNCCc3c[nH]c4ccccc34)cc2)cc1 (centres unmarked)	** (the MIC is 5-90 μg/mL)	** (the MIC is 5-90 μg/mL)	* (the MIC is >90 μg/mL)				
CC(O)C1ON(Cc2ccc(-c3cc4ccccc4o3)cc2)C(C(=O)NCCc2c[nH]c3ccccc23)C1CO (centres unmarked)	** (the MIC is 5-90 μg/mL)	** (the MIC is 5-90 μg/mL)	** (the MIC is 5-90 μg/mL)				
Cc1ccc(C#Cc2ccc(CN3OC(C(C)O)C(COC(=O)CN(C)C)C3C(=O)NCCc3c[nH]c4ccccc34)cc2)cc1 (centres unmarked)		** (the MIC is 5-90 μg/mL)	** (the MIC is 5-90 μg/mL)				
CC(O)C1ON(Cc2cccc(-c3ccc(C(C)(C)C)cc3)c2)C(C(=O)NCCc2c[nH]c3ccccc23)C1CO (centres unmarked)	*** (the MIC is less than 5 μg/mL)	*** (the MIC is less than 5 μg/mL)	** (the MIC is 5-90 μg/mL)				
CC(O)C1ON(CCCCCCc2ccccc2)C(C(=O)NCCc2c[nH]c3ccccc23)C1CO (centres unmarked)	** (the MIC is 5-90 μg/mL)	** (the MIC is 5-90 μg/mL)	** (the MIC is 5-90 μg/mL)				
Cc1ccc(C#Cc2ccc(CN3OC(C(C)O)C(CO)C3C(=O)NCCc3c[nH]c4ccccc34)cc2)cc1 (centres unmarked) [drawing 206]	*** (the MIC is less than 5 μg/mL)	*** (the MIC is less than 5 μg/mL)	** (the MIC is 5-90 μg/mL)				
CC(O)C1ON(Cc2ccc(-c3ccc(Cl)cc3)cc2)C(C(=O)NCCc2c[nH]c3ccccc23)C1CO (centres unmarked)	** (the MIC is 5-90 μg/mL)	** (the MIC is 5-90 μg/mL)	** (the MIC is 5-90 μg/mL)				
Cc1ccc(C#Cc2ccc(CN3O[C@@H]([C@@H](C)O)[C@@H](CO)[C@H]3CNCCc3c[nH]c4ccccc34)cc2)cc1				5 to 90 (≈ 9.55 to 172 µM)	< 5		
Cc1ccc(C#Cc2ccc(CN3OC[C@H](CN(C)C)[C@H]3C(=O)NCCc3c[nH]c4ccccc34)cc2)cc1				5 to 90 (≈ 9.6 to 173 µM)	5 to 90 (≈ 9.6 to 173 µM)	5 to 90 (≈ 9.6 to 173 µM)	
Cc1ccc(C#Cc2ccc(CN3OCC(CO)C3C(=O)NCCc3c[nH]c4ccccc34)cc2)cc1 (centres unmarked) [drawing 221]	** (the MIC is 5-90 μg/mL)	** (the MIC is 5-90 μg/mL)	** (the MIC is 5-90 μg/mL)				
COc1ccc2[nH]cc(CCNC(=O)C3C(CO)C(C(C)O)ON3Cc3ccc(C#Cc4ccc(C)cc4)cc3)c2c1 (centres unmarked)	** (the MIC is 5-90 μg/mL)	* (the MIC is >90 μg/mL)	** (the MIC is 5-90 μg/mL)				
CC(O)C1ON(Cc2ccc(C#Cc3cccc(O)c3)cc2)C(C(=O)NCCc2c[nH]c3ccccc23)C1CO (centres unmarked)	** (the MIC is 5-90 μg/mL)	** (the MIC is 5-90 μg/mL)	** (the MIC is 5-90 μg/mL)				
CCCCCCN1O[C@@H]([C@H](C)O)[C@@H](CO)[C@H]1C(=O)NCCc1c[nH]c2ccccc12	* (the MIC is >90 μg/mL)	* (the MIC is >90 μg/mL)	* (the MIC is >90 μg/mL)				
Cc1ccc(C#Cc2ccc(CN3OCC(CO)C3C(=O)NCCc3c[nH]c4ccccc34)cc2)cc1 (centres unmarked) [drawing 212]		*** (the MIC is less than 5 μg/mL)	** (the MIC is 5-90 μg/mL)				

SMILES	MIC S. aureus [1]	MIC MRSA [2]	MIC PRSP [3]	MIC [1] [µg/mL]	MIC [2] [µg/mL]	MIC [3] [µg/mL]	MIC S. pneuomiae [4]
Cc1ccc(C#Cc2ccc(CN3OC(CO)CC3C(=O)NCCc3c[nH]c4ccccc34)cc2)cc1 (centres unmarked)				5 to 90 (≈ 10.1 to 182 µM)	5 to 90 (≈ 10.1 to 182 µM)	5 to 90 (≈ 10.1 to 182 µM)	
Cc1ccc(C#Cc2ccc(CC3O[C@H]([C@@H](C)O)[C@H](CO)[C@@H]3C(=O)NCCc3nc4ccccc4[nH]3)cc2)cc1 (some centres unmarked)				5 to 90 (≈ 9.3 to 167 µM)	5 to 90 (≈ 9.3 to 167 µM)	5 to 90 (≈ 9.3 to 167 µM)	
CCCCCCCCCCCCN1O[C@@H]([C@H](C)O)[C@@H](CO)[C@H]1C(=O)NCCc1c[nH]c2ccccc12				< 5	< 5		
Cc1ccc(C#Cc2ccc(CN3O[C@@H]([C@@H](C)O)[C@@H](CN(C)C)[C@@H]3C(=O)NCCc3c[nH]c4ccccc34)cc2)cc1.Cl				5 to 90	5 to 90	5 to 90	
CCCCCCCCN1O[C@@H]([C@H](C)O)[C@@H](CO)[C@H]1C(=O)NCCc1c[nH]c2ccccc12				5 to 90 (≈ 11.2 to 202 µM)	5 to 90 (≈ 11.2 to 202 µM)		
CC(O)C1ON(Cc2cccc(C=Cc3ccc(Cl)cc3)c2)C(C(=O)NCCc2c[nH]c3ccccc23)C1CO (centres unmarked)	*** (the MIC is less than 5 μg/mL)	*** (the MIC is less than 5 μg/mL)	** (the MIC is 5-90 μg/mL)				
Cc1ccc(C#Cc2ccc(CN3OC4CNCC4C3C(=O)NCCc3c[nH]c4ccccc34)cc2)cc1.Cl (centres unmarked)				5 to 90	5 to 90		
CC(O)C1ON(Cc2ccc(-c3ccc(OC4CCCCO4)cc3)cc2)C(C(=O)NCCc2c[nH]c3ccccc23)C1CO (centres unmarked)	** (the MIC is 5-90 μg/mL)	** (the MIC is 5-90 μg/mL)					** (the MIC is 5-90 μg/mL)
CC(O)C1ON(Cc2ccc(C=Cc3ccccc3)cc2)C(C(=O)NCCc2c[nH]c3ccccc23)C1CO (centres unmarked) [drawing 216]	*** (the MIC is less than 5 μg/mL)	*** (the MIC is less than 5 μg/mL)	** (the MIC is 5-90 μg/mL)				
CC(O)C1ON(Cc2ccc(-c3ccc(Oc4ccccc4)cc3)cc2)C(C(=O)NCCc2c[nH]c3ccccc23)C1CO (centres unmarked)	** (the MIC is 5-90 μg/mL)	** (the MIC is 5-90 μg/mL)	** (the MIC is 5-90 μg/mL)				
Cc1ccc(C#Cc2ccc(CN3O[C@@H]([C@@H](C)O)[C@@H](CN(C)C)[C@H]3C(=O)NCCc3c[nH]c4ccccc34)cc2)cc1				< 5	< 5	5 to 90 (≈ 8.85 to 159 µM)	
CC(O)C1ON(Cc2ccc(Oc3ccccc3)cc2)C(C(=O)NCCc2c[nH]c3ccccc23)C1CO (centres unmarked)	** (the MIC is 5-90 μg/mL)	** (the MIC is 5-90 μg/mL)	** (the MIC is 5-90 μg/mL)				
Cc1ccc(C#Cc2ccc(CN3O[C@H]([C@@H](C)O)[C@H](CO)[C@@H]3C(=O)NCCN3CCCC3)cc2)cc1				> 90	> 90	> 90	
Cc1ccc(C#Cc2ccc(CN3OC(CN)CC3C(=O)NCCc3c[nH]c4ccccc34)cc2)cc1.Cl (centres unmarked)	** (the MIC is 5-90 μg/mL)	** (the MIC is 5-90 μg/mL)	** (the MIC is 5-90 μg/mL)				
CC(O)C1ON(Cc2cccc(C=Cc3ccccc3)c2)C(C(=O)NCCc2c[nH]c3ccccc23)N1CO (centres unmarked)	** (the MIC is 5-90 μg/mL)	** (the MIC is 5-90 μg/mL)	** (the MIC is 5-90 μg/mL)				
CC(O)C1ON(CCCCCCCCc2ccccc2)C(C(=O)NCCc2c[nH]c3ccccc23)C1CO (centres unmarked)		** (the MIC is 5-90 μg/mL)	** (the MIC is 5-90 μg/mL)				
CC(O)C1ON(Cc2cccc(-c3ccc(Cl)cc3)c2)C(C(=O)NCCc2c[nH]c3ccccc23)C1CO (centres unmarked)	** (the MIC is 5-90 μg/mL)	** (the MIC is 5-90 μg/mL)	** (the MIC is 5-90 μg/mL)				
O=C(NCCc1c[nH]c2ccccc12)C1C(CO)C(CO)ON1Cc1ccc(C#Cc2ccccc2)cc1 (centres unmarked)	** (the MIC is 5-90 μg/mL)	** (the MIC is 5-90 μg/mL)	** (the MIC is 5-90 μg/mL)				

From patent US20060020004A1, “Isoxazolidine compounds for treatment of bacterial infections” (Infinity Pharmaceuticals, Inc., priority 2004, published 2006)
